The source of these data is patent US8222288B2, “Small molecule inhibitors of MDM2 and the uses thereof” (The Regents of the University of Michigan, priority 2006, dated 2012).

Assay [1] has as its system LNCaP (p53 wild-type) cells. Description: Cell growth inhibition, WST-8, 4 days, LNCaP. As to conditions: single runs and mean ± SD line.
Method: (§1) To test these predictions, a cell growth assay was developed using human prostate cancer LNCaP (p53 wild-type) and PC-3 (p53 null) cell lines.
(§2) Cells were seeded in 96-well flat bottom cell culture plates at a density of 3-4×10^3 cells/well and incubated in the presence of compounds for 4 days.
Assay [2] has as its system HCT116 p53KO cells. In words: Cell growth inhibition, HCT116 p53KO. Particulars: single runs and mean ± SD line.
Method: as §2
In assay [3] the target is MDM2 protein (Homo sapiens, UniProt Q00987). In words: MDM2 binding assay (competition with F-6 probe; IC50 and calculated Ki). Particulars: F-6 [1 nM]; for IC50: MDM2 [10 nM], repeat determinations listed line by line; for Ki: value in parentheses, calculation of Ki: MDM2 [10 nM], read-out: (Ki ± SD).
Chain of MDM2 protein (Q00987 whole entry, species assumed): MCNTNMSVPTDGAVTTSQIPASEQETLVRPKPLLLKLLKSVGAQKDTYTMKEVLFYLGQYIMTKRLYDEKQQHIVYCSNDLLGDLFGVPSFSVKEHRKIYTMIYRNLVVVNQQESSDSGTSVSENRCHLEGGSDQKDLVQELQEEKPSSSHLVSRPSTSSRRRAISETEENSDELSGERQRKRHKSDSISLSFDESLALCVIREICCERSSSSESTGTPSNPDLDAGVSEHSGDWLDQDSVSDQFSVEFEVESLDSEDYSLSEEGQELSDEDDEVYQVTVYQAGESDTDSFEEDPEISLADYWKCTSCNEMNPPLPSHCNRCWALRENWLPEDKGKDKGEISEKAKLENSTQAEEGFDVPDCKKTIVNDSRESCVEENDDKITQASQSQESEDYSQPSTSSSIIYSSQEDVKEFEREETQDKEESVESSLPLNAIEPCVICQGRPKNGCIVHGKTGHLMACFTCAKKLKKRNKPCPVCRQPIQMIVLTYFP
The subject of assay [4] is HCT116 (wild-type p53) colon cancer cells. Description: Cell growth inhibition, HCT116 p53WT. Particulars: single runs and mean ± SD line.
Method: as §2
For assay [5], the system named is PC-3 (p53 null) cells. Description: Cell growth inhibition, WST-8, 4 days, PC3. As to conditions: single runs and mean ± SD line.
Method: as §1, §2
[6] abbreviates: Homo sapiens, LNCaP, 96 h, read-out: LNCaP IC50 (μM), LNCaP p53 wild-type, 4 days, WST-8.
Where [7] appears, read: Homo sapiens, HCT-116, read-out: HCT116 p53KO IC50 (μM), HCT116 p53KO.
The mark [8] stands for this setting: Homo sapiens, HCT-116, read-out: HCT116 p53WT IC50 (μM), HCT116 p53WT.
Setting [9] is: Homo sapiens, 96 h, read-out: PC3 IC50 (μM), PC3 p53 null, 4 days, WST-8.
The mark [10] stands for this setting: read-out: LNCaP IC50, LNCaP p53 wild-type, 4 days, WST-8.
Setting [11] is: read-out: HCT116 p53KO IC50, HCT116 p53KO.
Where [12] appears, read: read-out: PC3 IC50, PC3 p53 null, 4 days, WST-8.
[13] abbreviates: read-out: HCT116 p53WT IC50, HCT116 p53WT.

The structures appear in SMILES notation. Several values for one entry are separate records, joined by “and”; a condition that tells them apart may be missing. Equal values may be shown once. Read-outs that look alike come from different tables or passages of the source. A value given as a limit tells only on which side of the number the result lay.

For `CC(C)(C)C[C@H]1N[C@@H](C(=O)NCCC2CCC(O)C2)[C@H](c2ccc(F)c(Cl)c2)[C@@]12C(=O)Nc1cc(Cl)c(F)cc12` (some centres unmarked) [MDM2-319-5], the IC50 in assay [1] (setting [6]) was 0.602 µM; in assay [2] (setting [7]) it was 10.5 µM; in assay [3], 0.055 µM and 0.04 µM; in assay [4] (setting [8]) it was 0.993 µM; in assay [5] (setting [9]), 9.47 µM.

As for `CN1CCN(C(=O)[C@@H]2N[C@H](CC(C)(C)C)[C@]3(C(=O)Nc4cc(Cl)c(F)cc43)[C@H]2c2ccc(F)c(Cl)c2)CC1` [MI-319-9], the half-maximal inhibitory concentration (IC50) was 2.87 µM in assay [1] (setting [6]); 2.77 µM and 1.75 µM in assay [1] (setting [10]); 3.58 µM in assay [3].

Take `O=C(NCC[C@H](O)CO)[C@@H]1N[C@H](Cc2ccccc2)[C@]2(C(=O)Nc3cc(Cl)c(F)cc32)[C@H]1c1ccc(F)c(Cl)c1` [MDM2-319-2]: the IC50 in assay [2] (setting [7]) is 22.2 µM; in assay [2] (setting [11]), 19.5 µM and 25.4 µM and 22.4 µM; in assay [3] it was 175 µM and > 80 µM; in assay [5] (setting [9]), 14.4 µM; in assay [5] (setting [12]), 19.6 µM (2×) and 17.9 µM. Further, the Ki in assay [3] is 16.4 µM.

In the case of `CC(C)(C)C[C@H]1N[C@@H](C(=O)NCCn2ccnc2)[C@H](c2ccc(F)c(Cl)c2)[C@@]12C(=O)Nc1cc(Cl)c(F)cc12` [MI-319-17, 6-CHLORO-4′-(3-CHLORO-4-FLUOROPHENYL)-2′-(2,2-DIMETHYL-PROPYL)-5-FLUORO-2-OXO-1,2-DIHYDRO-SPIRO[INDOLE-3,3′-PYRROLIDINE]-5′-CARBOXYLIC ACID (2-IMIDAZOL-1-YL-ETHYL)-AMIDE], in assay [3], the IC50 was 0.39 µM and 0.49 µM.

Regarding `CC(C)(C)C[C@H]1N[C@@H](C(=O)NCC[C@@H](O)C[C@@H](O)CC(=O)O)[C@H](c2ccc(F)c(Cl)c2)[C@@]12C(=O)Nc1cc(Cl)c(F)cc12` [MI-319-18, 7-{[6-CHLORO-4′-(3-CHLORO-4-FLUOROPHENYL)-2′-(2,2-DIMETHYL-PROPYL)-5-FLUORO-2-OXO-1,2-DIHYDRO-SPIRO[INDOLE-3,3′-PYRROLIDINE]-5′-CARBONYL]-AMINO}-3,5-DIHYDROXY-HEPTANOIC ACID], the IC50 in assay [1] (setting [6]) was over 30 µM; in assay [2] (setting [7]) it was over 30 µM; in assay [3], 3.51 µM and 3.57 µM; in assay [4] (setting [8]), over 30 µM; in assay [5] (setting [9]), over 30 µM.

In the case of `CC(C)(C)C[C@H]1N[C@@H](C(=O)NCCC2CCC(O)C2)[C@H](c2ccc(F)c(Cl)c2)[C@@]12C(=O)Nc1cc(Cl)c(F)cc12` (single isomer, unassigned) [MDM2-319-6, 6-CHLORO-4′-(3-CHLORO-4-FLUOROPHENYL)-2′-(2,2-DIMETHYL-PROPYL)-5-FLUORO-2-OXO-1,2-DIHYDRO-SPIRO[INDOLE-3,3′-PYRROLIDINE]-5′-CARBOXYLIC ACID [2-(3-HYDROXY-CYCLOPENTYL)-ETHYL]-AMIDE], the IC50 in assay [3] is 0.59 µM and 0.55 µM.

On to `CC(=O)N1[C@@H](C(=O)NCC[C@H](O)CO)[C@H](c2ccc(F)c(Cl)c2)[C@@]2(C(=O)Nc3cc(Cl)c(F)cc32)[C@H]1CC(C)(C)C` [MI-319-13, 1′-ACETYL-6-CHLORO-4′-(3-CHLORO-4-FLUOROPHENYL)-2′-(2,2-DIMETHYL-PROPYL)-5-FLUORO-2-OXO-1,2-DIHYDRO-SPIRO[INDOLE-3,3′-PYRROLIDINE]-5′-CARBOXYLIC ACID (3,4-DIHYDROXY-BUTYL)-AMIDE], for which the IC50 is 32.6 µM in assay [2] (setting [7]); 35.1 µM and 33 µM and 33.6 µM in assay [2] (setting [11]); 5.87 µM and 5.04 µM in assay [3].

For `CC(C)(C)C[C@H]1N[C@@H](C(=O)NCC[C@H](O)CO)[C@H](c2ccc(F)c(Cl)c2)[C@@]12C(=O)Nc1cc(Cl)c(F)cc12` [MDM2-319, (2′R,3S,3″S,4′R,5′R)6-CHLORO-4′-(3-CHLORO-4-FLUORO-PHENYL)-2′-(2,2-DIMETHYL-PROPYL)-5-FLUORO-2-OXO-1,2-DIHYDRO-SPIRO[INDOLE-3,3′-PYRROLIDINE]-5′-CARBOXYLIC ACID (3,4-DIHYDROXY-BUTYL)-AMIDE], the values for the IC50 in assay [1] (setting [6]) and in assay [2] (setting [7]) were 0.229 ± 0.04 µM and 12.8 ± 1.29 µM, respectively.

Turning to `CC(C)(C)C[C@H]1N[C@@H](C(=O)NCCNC(=N)N)[C@H](c2ccc(F)c(Cl)c2)[C@@]12C(=O)Nc1cc(Cl)c(F)cc12` [MI-319-20, 6-CHLORO-4′-(3-CHLORO-4-FLUOROPHENYL)-2′-(2,2-DIMETHYL-PROPYL)-5-FLUORO-2-OXO-1,2-DIHYDRO-SPIRO[INDOLE-3,3′-PYRROLIDINE]-5′-CARBOXYLIC ACID (2-GUANIDINO-ETHYL)-AMIDE], the IC50 turned out to be 27.4 µM in assay [1] (setting [6]) and 31.6 µM in assay [1] (setting [10]).

Regarding `O=C(NCC[C@H](O)CO)[C@@H]1N[C@H](CC2CCCC2)[C@]2(C(=O)Nc3cc(Cl)c(F)cc32)[C@H]1c1ccc(F)c(Cl)c1` [MDM2-319-1, 6-CHLORO-4′-(3-CHLORO-4-FLUOROPHENYL)-2′-CYCLOPENTYLMETHYL-5-FLUORO-2-OXO-1,2-DIHYDRO-SPIRO[INDOLE-3,3′-PYRROLIDINE]-5′-CARBOXYLIC ACID (3,4-DIHYDROXY-BUTYL)-AMIDE], the 50% inhibitory concentration (IC50) in assay [3] was 0.194 µM and 0.072 µM.

For `CC(C)(C)C[C@H]1N(S(=O)(=O)C(F)(F)F)[C@@H](C(=O)NCCN2CCOCC2)[C@H](c2ccc(F)c(Cl)c2)[C@@]12C(=O)Nc1cc(Cl)c(F)cc12` [MI-319-10], the 50% inhibitory concentration (IC50) was 0.776 µM in assay [1] (setting [6]); 0.828 µM and 0.449 µM and 0.68 µM in assay [1] (setting [10]); 1.41 µM in assay [4] (setting [8]); 1.95 µM and 1.09 µM and 1.48 µM in assay [4] (setting [13]); 10.5 µM in assay [5] (setting [9]); 10.4 µM and 8.07 µM and 9.63 µM in assay [5] (setting [12]).

Consider `O=C(NCC[C@H](O)CO)[C@@H]1N[C@H](C2CCCC2)[C@]2(C(=O)Nc3cc(Cl)c(F)cc32)[C@H]1c1ccc(F)c(Cl)c1` [MI-319-8, 6-CHLORO-4′-(3-CHLORO-4-FLUOROPHENYL)-2′-CYCLOPENTYL-5-FLUORO-2-OXO-1,2-DIHYDRO-SPIRO[INDOLE-3,3′-PYRROLIDINE]-5′-CARBOXYLIC ACID (3,4-DIHYDROXY-BUTYL)-AMIDE], for which the IC50 in assay [3] was 0.34 µM and 0.53 µM.

With `COC(C)(C)C[C@H]1N[C@@H](C(=O)NCC[C@H](O)CO)[C@H](c2ccc(F)c(Cl)c2)[C@@]12C(=O)Nc1cc(Cl)c(F)cc12` [MI-319-7], the IC50 was 2.17 µM in assay [1] (setting [6]), 39.3 µM in assay [3], 8.22 µM in assay [4] (setting [8]) and 39.7 µM in assay [5] (setting [9]).

Regarding `O=C(NCC[C@H](O)CO)[C@@H]1N[C@H](C2CCCCC2)[C@]2(C(=O)Nc3cc(Cl)c(F)cc32)[C@H]1c1ccc(F)c(Cl)c1` [MDM2-319-4, 6-CHLORO-4′-(3-CHLORO-4-FLUOROPHENYL)-2′-CYCLOHEXYL-5-FLUORO-2-OXO-1,2-DIHYDRO-SPIRO[INDOLE-3,3′-PYRROLIDINE]-5′-CARBOXYLIC ACID (3,4-DIHYDROXY-BUTYL)-AMIDE], in assay [3], the half-maximal inhibitory concentration (IC50) is 0.71 µM and 1.16 µM and 0.46 µM; the Ki is 0.066 µM.

Regarding `CC(C)(C)C[C@H]1N[C@@H](C(=O)NCCc2ncc[nH]2)[C@H](c2cccc(Cl)c2)[C@@]12C(=O)Nc1cc(Cl)c(F)cc12` [MI-319-21], the concentration for half-maximal inhibition (IC50) in assay [1] (setting [6]) came out at 2.84 µM; in assay [2] (setting [7]) it was 11.8 µM; in assay [4] (setting [8]), 4.4 µM; in assay [5] (setting [9]), 21.9 µM.

`CC(C)(C)C[C@H]1N[C@@H](C(=O)NCC(=O)O)[C@H](c2ccc(F)c(Cl)c2)[C@@]12C(=O)Nc1cc(Cl)c(F)cc12` [MI-319-15, {[6-CHLORO-4′-(3-CHLORO-4-FLUOROPHENYL)-2′-(2,2-DIMETHYL-PROPYL)-5-FLUORO-2-OXO-1,2-DIHYDRO-SPIRO[INDOLE-3,3′-PYRROLIDINE]-5′-CARBONYL]-AMINO}-ACETIC ACID]: the IC50 is 4.52 µM in assay [1] (setting [6]); 4.12 µM and 6.11 µM and 4.92 µM in assay [1] (setting [10]); over 30 µM in assay [2] (setting [7]); 0.35 µM and 0.18 µM in assay [3]; 12.1 µM in assay [4] (setting [8]); 12.9 µM and 13.9 µM and 13 µM in assay [4] (setting [13]). Further, the IC50 in assay [5] (setting [9]) is over 30 µM.

With `CC(C)(C)C[C@H]1N[C@@H](C(=O)NC[C@H](O)[C@H](O)CO)[C@H](c2ccc(F)c(Cl)c2)[C@@]12C(=O)Nc1cc(Cl)c(F)cc12` [MI-319-19, 6-CHLORO-4′-(3-CHLORO-4-FLUOROPHENYL)-2′-(2,2-DIMETHYL-PROPYL)-5-FLUORO-2-OXO-1,2-DIHYDRO-SPIRO[INDOLE-3,3′-PYRROLIDINE]-5′-CARBOXYLIC ACID (2,3,4-TRIHYDROXY-BUTYL)-AMIDE], in assay [3], the 50% inhibitory concentration (IC50) is 0.5 µM and 0.49 µM.

Turning to `CC(C)(C)C[C@H]1N[C@@H](C(=O)NCC[C@H](O)C(=O)O)[C@H](c2ccc(F)c(Cl)c2)[C@@]12C(=O)Nc1cc(Cl)c(F)cc12` [MI-319-16], the IC50 in assay [4] (setting [8]) and in assay [5] (setting [9]) was over 30 µM in each case.
